Data taken from patent US20250127801A1, “BRIDGED TRICYCLIC CARBAMOYLPYRIDONE COMPOUNDS AND USES THEREOF” (priority 2023, published 2025).
Values after ≈ are worked out from the molar mass of the structure shown. Read-outs that look alike come from different tables or passages of the source.

What was measured:
HIV-1 (IIIB) = assay: microbe, parasite or virus in culture; type: cell-based
in vitro = conditions: human; for CC50 at 5 days: uninfected MT-4 cells
physchem = conditions: 23 °C, thermodynamic from solid; for solubility thermodynamic at 24 h: FaSSIF; for solubility thermodynamic: fassif
[1] = Human immunodeficiency virus 1, MT4, 120 h, HIV-1 (IIIB) replication in MT-4 cells, 5 days incubation, Cell Titer Glo, read-out: MT4 EC50
[2] = Human immunodeficiency virus 1, IIIB, MT4, 120 h, read-out: MT4 EC50 (nM)

| Compound | EC50 (HIV-1 (IIIB); [1]) | CC50 at 5 days (in vitro) | solubility thermodynamic at 24 h (physchem) | EC50 (HIV-1 (IIIB); [2]) | CC50 (in vitro) | solubility thermodynamic (physchem) |
| --- | --- | --- | --- | --- | --- | --- |
| CCCCCCCCCCCCCC(=O)Oc1ccc(CC(=O)Oc2c3n(cc(C(=O)NCc4ccc(F)cc4F)c2=O)[C@@H]2CN(C3=O)[C@@H](C)CC[C@]23CC(C)=NO3)cc1 [Compound 96, [4-[2-[(1R,10S,13S)-4-[(2,4-difluorophenyl)methylcarbamoyl]-3′,10-dimethyl-5,8-dioxo-spiro[2,9-diazatricyclo[7.4.1.02,7]tetradeca-3,6-diene-13,5′-4H-isoxazole]-6-yl]oxy-2-oxo-ethyl]phenyl] tetradecanoate] | 2.26 nM | ≥ 50000 nM | 13.5 µg/mL (≈ 0.0162 mM) | – | – | – |
| COC1=NO[C@@]2(CC[C@H](C)N3C[C@H]2n2cc(C(=O)NCc4ccc(F)cc4F)c(=O)c(OCOC(=O)N(C)c4ncccc4COP(=O)(O)O)c2C3=O)C1 [Compound 3, (((3′S,5S,7′R)-10′-((2,4-difluorobenzyl)carbamoyl)-3-methoxy-3′-methyl-1′,11′-dioxo-1′,4′,5′,11′-tetrahydro-3′H,4H,7′H-spiro[isoxazole-5,6′-[2,7]methanopyrido[1,2-a][1,4]diazonin]-12′-yl)oxy)methylmethyl(3-((phosphonooxy)methyl)pyridin-2-yl)carbamate] | 2.15 nM | 12600 nM | 5410 µg/mL (≈ 6.97 mM) | – | – | – |
| CC1=NO[C@@]2(CC[C@H](C)N3C[C@H]2n2cc(C(=O)NCc4ccc(F)cc4F)c(=O)c(OCOC(=O)[C@@H]4CC[C@@H]4CN(CC(=O)O)C(=O)OCOP(=O)(O)O)c2C3=O)C1 [Compound 80, N-(((1S,2R)-2-(((((3′S,5S,7′R)-10′-((2,4-difluorobenzyl)carbamoyl)-3,3′-dimethyl-1′,11′-dioxo-1′,4′,5′,11′-tetrahydro-3′H,4H,7′H-spiro[isoxazole-5,6′-[2,7]methanopyrido[1,2-a][1,4]diazonin]-12′-yl)oxy)methoxy)carbonyl)cyclobutyl)methyl)-N-(((phosphonooxy)methoxy)carbonyl)glycine] | – | – | – | 0.785 nM | 10100 nM | 4150 µg/mL (≈ 4.94 mM) |
| CC1=NO[C@@]2(CC[C@H](C)N3C[C@H]2n2cc(C(=O)NCc4ccc(F)cc4F)c(=O)c(OC(=O)N(C)c4ncccc4CN(CC(=O)OCc4ccccc4)C(=O)OCOP(=O)(O)O)c2C3=O)C1 [Compound 33, benzyl N-((2-(((((3′S,5S,7′R)-10′-((2,4-difluorobenzyl)carbamoyl)-3,3′-dimethyl-1′,11′-dioxo-1′,4′,5′,11′-tetrahydro-3′H,4H,7′H-spiro[isoxazole-5,6′-[2,7]methanopyrido[1,2-a][1,4]diazonin]-12′-yl)oxy)carbonyl)(methyl)amino)pyridin-3-yl)methyl)-N-(((phosphonooxy)methoxy)carbonyl)glycinate] | – | – | – | 2.34 nM | 12900 nM | 4170 µg/mL (≈ 4.38 mM) |
| CC1=NO[C@@]2(CC[C@H](C)N3C[C@H]2n2cc(C(=O)NCc4ccc(F)cc4F)c(=O)c(OCOC(=O)OCC4(COP(=O)(O)O)COC4)c2C3=O)C1 [Compound 56, (((3′S,5S,7′R)-10′-((2,4-difluorobenzyl)carbamoyl)-3,3′-dimethyl-1′,11′-dioxo-1′,4′,5′,11′-tetrahydro-3′H,4H,7′H-spiro[isoxazole-5,6′-[2,7]methanopyrido[1,2-a][1,4]diazonin]-12′-yl)oxy)methyl ((3-((phosphonooxy)methyl)oxetan-3-yl)methyl) carbonate] | 2.4 nM | 12800 nM | 3560 µg/mL (≈ 4.81 mM) | – | – | – |
| CC1=NO[C@@]2(CC[C@H](C)N3C[C@H]2n2cc(C(=O)NCc4ccc(F)cc4F)c(=O)c(OCOC(=O)O[C@H]4CCCC[C@@H]4OP(=O)(O)O)c2C3=O)C1 [Compound 44, (((3′S,5S,7′R)-10′-((2,4-difluorobenzyl)carbamoyl)-3,3′-dimethyl-1′,11′-dioxo-1′,4′,5′,11′-tetrahydro-3′H,4H,7′H-spiro[isoxazole-5,6′-[2,7]methanopyrido[1,2-a][1,4]diazonin]-12′-yl)oxy)methyl ((1S,2S)-2-(phosphonooxy)cyclohexyl) carbonate] | 1.8 nM | 13500 nM | 4440 µg/mL (≈ 6.01 mM) | – | – | – |
| CC1=NO[C@@]2(CC[C@H](C)N3C[C@H]2n2cc(C(=O)NCc4ccc(F)cc4F)c(=O)c(OCOC(=O)N(C)C[C@@H]4CCCN4C(=O)OCOP(=O)(O)O)c2C3=O)C1 [Compound 14, (phosphonooxy)methyl (2S)-2-(((((((3′S,5S,7′R)-10′-((2,4-difluorobenzyl)carbamoyl)-3,3′-dimethyl-1′,11′-dioxo-1′,4′,5′,11′-tetrahydro-3′H,4H,7′H-spiro[isoxazole-5,6′-[2,7]methanopyrido[1,2-a][1,4]diazonin]-12′-yl)oxy)methoxy)carbonyl)(methyl)amino)methyl)pyrrolidine-1-carboxylate] | 1.25 nM | 16800 nM | 5090 µg/mL (≈ 6.28 mM) | – | – | – |
| CC1=NO[C@@]2(CC[C@H](C)N3C[C@H]2n2cc(C(=O)NCc4ccc(F)cc4F)c(=O)c(OCOC(=O)N(C)c4ncccc4COC(=O)[C@@H](N)CCCCN)c2C3=O)C1 [Compound 10, (2-((((((3′S,5S,7′R)-10′-((2,4-difluorobenzyl)carbamoyl)-3,3′-dimethyl-1′,11′-dioxo-1′,4′,5′,11′-tetrahydro-3′H,4H,7′H-spiro[isoxazole-5,6′-[2,7]methanopyrido[1,2-a][1,4]diazonin]-12′-yl)oxy)methoxy)carbonyl)(methyl)amino)pyridin-3-yl)methyl L-lysinate] | 3.19 nM | 10200 nM | 3320 µg/mL (≈ 4.11 mM) | – | – | – |
| CC1=NO[C@@]2(CC[C@H](C)N3C[C@H]2n2cc(C(=O)NCc4ccc(F)cc4F)c(=O)c(OCc4ccncc4OP(=O)(O)O)c2C3=O)C1 [Compound 70, 4-((((3′S,5S,7′R)-10′-((2,4-difluorobenzyl)carbamoyl)-3,3′-dimethyl-1′,11′-dioxo-1′,4′,5′,11′-tetrahydro-3′H,4H,7′H-spiro[isoxazole-5,6′-[2,7]methanopyrido[1,2-a][1,4]diazonin]-12′-yl)oxy)methyl)pyridin-3-yl dihydrogen phosphate] | – | – | – | 1.63 nM | 10200 nM | 2460 µg/mL |
| CC1=NO[C@@]2(CC[C@H](C)N3C[C@H]2n2cc(C(=O)NCc4ccc(F)cc4F)c(=O)c(OCOC(=O)CC(C)(C)c4c(CC(=O)N5CCC[C@@H]5C(=O)O)cc(C)cc4OP(=O)(O)O)c2C3=O)C1 [Compound 57, (2-(2-(4-((((3′S,5S,7′R)-10′-((2,4-difluorobenzyl)carbamoyl)-3,3′-dimethyl-1′,11′-dioxo-1′,4′,5′,11′-tetrahydro-3′H,4H,7′H-spiro[isoxazole-5,6′-[2,7]methanopyrido[1,2-a][1,4]diazonin]-12′-yl)oxy)methoxy)-2-methyl-4-oxobutan-2-yl)-5-methyl-3-(phosphonooxy)phenyl)acetyl)-D-proline] | – | – | – | 2.55 nM | 15000 nM | 5460 µg/mL (≈ 5.79 mM) |
| CC1=NO[C@@]2(CC[C@H](C)N3C[C@H]2n2cc(C(=O)NCc4ccc(F)cc4F)c(=O)c(OCOC(=O)OCc4ccncc4OP(=O)(O)O)c2C3=O)C1 [Compound 72, (((3′S,5S,7′R)-10′-((2,4-difluorobenzyl)carbamoyl)-3,3′-dimethyl-1′,11′-dioxo-1′,4′,5′,11′-tetrahydro-3′H,4H,7′H-spiro[isoxazole-5,6′-[2,7]methanopyrido[1,2-a][1,4]diazonin]-12′-yl)oxy)methyl ((3-(phosphonooxy)pyridin-4-yl)methyl) carbonate] | – | – | – | 1.34 nM | 11200 nM | 2560 µg/mL (≈ 3.42 mM) |
| CC1=NO[C@@]2(CC[C@H](C)N3C[C@H]2n2cc(C(=O)NCc4ccc(F)cc4F)c(=O)c(OCOC(=O)OC[C@@H]4C[C@@H]4COP(=O)(O)O)c2C3=O)C1 [Compound 49, (((3′S,5S,7′R)-10′-((2,4-difluorobenzyl)carbamoyl)-3,3′-dimethyl-1′,11′-dioxo-1′,4′,5′,11′-tetrahydro-3′H,4H,7′H-spiro[isoxazole-5,6′-[2,7]methanopyrido[1,2-a][1,4]diazonin]-12′-yl)oxy)methyl (((1R,2S)-2-((phosphonooxy)methyl)cyclopropyl)methyl) carbonate] | 4.17 nM | 23300 nM | 4890 µg/mL (≈ 6.75 mM) | – | – | – |
| CC1=NO[C@@]2(CC[C@H](C)N3C[C@H]2n2cc(C(=O)NCc4ccc(F)cc4F)c(=O)c(OCOC(=O)CC(C)(C)c4c(CC(=O)N5CCOCC5)cc(C)cc4OP(=O)(O)O)c2C3=O)C1 [Compound 58, (((3′S,5S,7′R)-10′-((2,4-difluorobenzyl)carbamoyl)-3,3′-dimethyl-1′,11′-dioxo-1′,4′,5′,11′-tetrahydro-3′H,4H,7′H-spiro[isoxazole-5,6′-[2,7]methanopyrido[1,2-a][1,4]diazonin]-12′-yl)oxy)methyl 3-methyl-3-(4-methyl-2-(2-morpholino-2-oxoethyl)-6-(phosphonooxy)phenyl)butanoate] | – | – | – | 5.78 nM | 29000 nM | 4640 µg/mL (≈ 5.08 mM) |
| CC1=NO[C@@]2(CC[C@H](C)N3C[C@H]2n2cc(C(=O)NCc4ccc(F)cc4F)c(=O)c(OC(=O)N(C)c4ncccc4CN(CC(=O)O)C(=O)OCOP(=O)(O)O)c2C3=O)C1 [Compound 6, N-((2-(((((3′S,5S,7′R)-10′-((2,4-difluorobenzyl)carbamoyl)-3,3′-dimethyl-1′,11′-dioxo-1′,4′,5′,11′-tetrahydro-3′H,4H,7′H-spiro[isoxazole-5,6′-[2,7]methanopyrido[1,2-a][1,4]diazonin]-12′-yl)oxy)carbonyl)(methyl)amino)pyridin-3-yl)methyl)-N-(((phosphonooxy)methoxy)carbonyl)glycine] | – | – | – | 0.917 nM | 10100 nM | 4810 µg/mL (≈ 5.58 mM) |
